According to ChEMBL document CHEMBL3991601, “The target landscape of clinical kinase drugs” (Science, 2017):
Counter-ions that a name gives are not always drawn. Activity calls are given as the source filed them. Cut-off read from the data, not from the text of the source: actives have a measured Kd and inactives only a lower limit.

Assays:
[1] = molecular target: Mitotic checkpoint serine/threonine-protein kinase BUB1 (Homo sapiens, UniProt O43683)
[2] = molecular target: T1, Serine/threonine-protein kinase LATS1 (Homo sapiens, UniProt O95835)
T1 sequence (O95835 whole entry): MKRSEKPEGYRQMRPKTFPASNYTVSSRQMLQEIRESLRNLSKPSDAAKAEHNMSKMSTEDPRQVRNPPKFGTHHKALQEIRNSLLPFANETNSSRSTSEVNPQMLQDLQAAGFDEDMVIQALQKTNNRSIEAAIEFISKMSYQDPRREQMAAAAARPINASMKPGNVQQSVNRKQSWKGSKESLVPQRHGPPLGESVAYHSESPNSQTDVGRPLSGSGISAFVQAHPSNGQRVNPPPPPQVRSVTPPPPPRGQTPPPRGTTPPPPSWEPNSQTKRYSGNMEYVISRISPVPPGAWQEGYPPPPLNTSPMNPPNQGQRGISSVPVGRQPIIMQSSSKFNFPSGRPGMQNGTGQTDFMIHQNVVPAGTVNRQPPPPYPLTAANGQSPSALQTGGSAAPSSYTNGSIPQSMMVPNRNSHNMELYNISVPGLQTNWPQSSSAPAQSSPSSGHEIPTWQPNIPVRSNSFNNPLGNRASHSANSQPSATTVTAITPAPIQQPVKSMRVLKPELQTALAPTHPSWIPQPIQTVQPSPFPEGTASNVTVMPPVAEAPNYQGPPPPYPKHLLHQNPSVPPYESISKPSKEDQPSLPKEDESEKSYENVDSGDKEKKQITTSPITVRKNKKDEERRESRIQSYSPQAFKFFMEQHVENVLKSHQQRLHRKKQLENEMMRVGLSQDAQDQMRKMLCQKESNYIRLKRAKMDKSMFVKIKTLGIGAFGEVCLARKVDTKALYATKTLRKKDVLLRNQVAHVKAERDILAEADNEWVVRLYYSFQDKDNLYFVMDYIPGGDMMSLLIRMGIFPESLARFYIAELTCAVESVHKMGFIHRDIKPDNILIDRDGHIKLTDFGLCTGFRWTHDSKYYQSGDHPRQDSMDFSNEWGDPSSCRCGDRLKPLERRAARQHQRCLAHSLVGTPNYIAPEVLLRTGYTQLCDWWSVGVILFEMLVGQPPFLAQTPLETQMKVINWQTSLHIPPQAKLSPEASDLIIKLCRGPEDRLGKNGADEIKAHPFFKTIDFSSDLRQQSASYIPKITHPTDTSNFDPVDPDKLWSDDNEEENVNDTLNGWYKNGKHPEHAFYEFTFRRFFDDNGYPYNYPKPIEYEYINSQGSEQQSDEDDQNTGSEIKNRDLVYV

[3] = molecular target: Mitogen-activated protein kinase kinase kinase kinase 4 (Homo sapiens, UniProt O95819)
[4] = molecular target: Hepatocyte growth factor receptor (Homo sapiens, UniProt P08581)
[5] = molecular target: T2, Serine/threonine-protein kinase Nek9 (Homo sapiens, UniProt Q8TD19)
T2 sequence (Q8TD19 whole entry): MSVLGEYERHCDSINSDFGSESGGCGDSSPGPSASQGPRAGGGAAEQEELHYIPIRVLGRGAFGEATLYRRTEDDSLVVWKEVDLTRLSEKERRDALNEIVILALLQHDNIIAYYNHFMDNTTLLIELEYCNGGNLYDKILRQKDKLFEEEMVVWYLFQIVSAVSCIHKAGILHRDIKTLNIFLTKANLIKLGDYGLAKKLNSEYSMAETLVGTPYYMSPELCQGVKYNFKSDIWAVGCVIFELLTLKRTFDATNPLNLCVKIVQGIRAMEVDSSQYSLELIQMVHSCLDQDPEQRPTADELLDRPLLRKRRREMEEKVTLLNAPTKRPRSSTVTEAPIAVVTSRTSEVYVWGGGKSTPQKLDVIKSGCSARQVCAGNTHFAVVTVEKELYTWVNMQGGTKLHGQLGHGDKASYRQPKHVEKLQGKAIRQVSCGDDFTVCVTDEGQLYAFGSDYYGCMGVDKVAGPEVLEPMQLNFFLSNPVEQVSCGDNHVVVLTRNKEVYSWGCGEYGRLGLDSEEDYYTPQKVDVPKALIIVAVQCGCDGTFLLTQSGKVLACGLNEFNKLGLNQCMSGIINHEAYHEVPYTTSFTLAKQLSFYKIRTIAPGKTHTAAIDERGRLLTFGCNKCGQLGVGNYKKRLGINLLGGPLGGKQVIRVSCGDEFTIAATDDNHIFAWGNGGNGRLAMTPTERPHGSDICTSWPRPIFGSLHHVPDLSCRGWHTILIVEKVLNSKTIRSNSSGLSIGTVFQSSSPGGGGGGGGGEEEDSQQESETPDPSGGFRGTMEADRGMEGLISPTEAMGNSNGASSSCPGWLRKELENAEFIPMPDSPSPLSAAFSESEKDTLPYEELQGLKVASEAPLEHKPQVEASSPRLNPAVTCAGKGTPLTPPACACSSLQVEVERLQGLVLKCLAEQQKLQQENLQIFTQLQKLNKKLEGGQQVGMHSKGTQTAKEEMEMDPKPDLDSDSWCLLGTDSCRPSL

[6] = molecular target: Ribosomal protein S6 kinase alpha-6 (Homo sapiens, UniProt Q9UK32)
Note: in the data inactive means no Kd found up to 30 µM.

Sequence of Mitogen-activated protein kinase kinase kinase kinase 4 (O95819 whole entry): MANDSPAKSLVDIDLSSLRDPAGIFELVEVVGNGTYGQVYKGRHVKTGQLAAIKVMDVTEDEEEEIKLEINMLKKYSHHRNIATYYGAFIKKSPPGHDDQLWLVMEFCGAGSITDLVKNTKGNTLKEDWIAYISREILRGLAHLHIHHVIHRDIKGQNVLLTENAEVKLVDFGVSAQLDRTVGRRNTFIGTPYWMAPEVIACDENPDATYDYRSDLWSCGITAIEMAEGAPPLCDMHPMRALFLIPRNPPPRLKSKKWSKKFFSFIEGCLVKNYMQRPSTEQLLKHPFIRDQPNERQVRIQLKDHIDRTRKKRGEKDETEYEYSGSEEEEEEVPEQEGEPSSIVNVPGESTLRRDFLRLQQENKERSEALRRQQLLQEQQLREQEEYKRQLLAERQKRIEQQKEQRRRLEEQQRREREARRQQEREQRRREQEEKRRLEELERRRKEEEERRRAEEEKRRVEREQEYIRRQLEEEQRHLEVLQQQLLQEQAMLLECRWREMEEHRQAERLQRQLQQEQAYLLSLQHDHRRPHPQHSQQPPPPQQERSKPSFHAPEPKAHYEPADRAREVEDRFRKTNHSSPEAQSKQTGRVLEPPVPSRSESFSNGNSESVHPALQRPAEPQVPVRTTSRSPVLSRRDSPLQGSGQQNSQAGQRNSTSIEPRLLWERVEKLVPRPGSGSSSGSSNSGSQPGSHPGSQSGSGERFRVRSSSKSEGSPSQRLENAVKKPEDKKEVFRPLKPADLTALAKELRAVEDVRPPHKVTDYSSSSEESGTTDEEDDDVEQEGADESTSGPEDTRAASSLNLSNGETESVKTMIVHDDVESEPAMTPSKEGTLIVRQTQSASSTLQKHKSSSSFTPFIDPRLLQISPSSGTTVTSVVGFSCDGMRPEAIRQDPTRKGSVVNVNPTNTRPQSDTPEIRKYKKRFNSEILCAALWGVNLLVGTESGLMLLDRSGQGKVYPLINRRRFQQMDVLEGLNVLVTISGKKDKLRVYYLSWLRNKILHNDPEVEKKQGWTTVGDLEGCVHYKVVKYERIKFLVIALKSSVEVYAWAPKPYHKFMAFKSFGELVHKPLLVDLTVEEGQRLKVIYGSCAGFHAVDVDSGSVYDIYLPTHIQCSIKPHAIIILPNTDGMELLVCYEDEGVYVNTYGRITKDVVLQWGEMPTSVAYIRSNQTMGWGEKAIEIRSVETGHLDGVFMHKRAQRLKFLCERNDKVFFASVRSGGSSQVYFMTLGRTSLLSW
Sequence of Ribosomal protein S6 kinase alpha-6 (Q9UK32 whole entry): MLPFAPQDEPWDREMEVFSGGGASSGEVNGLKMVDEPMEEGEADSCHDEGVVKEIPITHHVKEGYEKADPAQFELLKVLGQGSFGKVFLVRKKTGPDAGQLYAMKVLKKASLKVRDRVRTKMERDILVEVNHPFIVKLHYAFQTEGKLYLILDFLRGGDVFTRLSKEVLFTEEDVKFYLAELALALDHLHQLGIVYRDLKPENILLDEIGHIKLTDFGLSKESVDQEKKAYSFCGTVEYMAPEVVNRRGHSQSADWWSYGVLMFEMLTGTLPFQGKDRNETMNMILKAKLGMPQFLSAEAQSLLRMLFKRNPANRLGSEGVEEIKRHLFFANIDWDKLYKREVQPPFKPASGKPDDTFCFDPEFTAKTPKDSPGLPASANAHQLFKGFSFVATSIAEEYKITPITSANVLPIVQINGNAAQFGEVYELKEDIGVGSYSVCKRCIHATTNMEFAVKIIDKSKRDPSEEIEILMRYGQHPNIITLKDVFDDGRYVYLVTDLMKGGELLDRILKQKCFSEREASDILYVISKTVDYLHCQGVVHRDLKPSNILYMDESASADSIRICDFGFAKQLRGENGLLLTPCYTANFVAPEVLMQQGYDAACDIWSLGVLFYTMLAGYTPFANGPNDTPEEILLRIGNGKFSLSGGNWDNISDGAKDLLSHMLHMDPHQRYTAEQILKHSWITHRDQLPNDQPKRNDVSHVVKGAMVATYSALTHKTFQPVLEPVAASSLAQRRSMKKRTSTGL
Sequence of Hepatocyte growth factor receptor (P08581 whole entry): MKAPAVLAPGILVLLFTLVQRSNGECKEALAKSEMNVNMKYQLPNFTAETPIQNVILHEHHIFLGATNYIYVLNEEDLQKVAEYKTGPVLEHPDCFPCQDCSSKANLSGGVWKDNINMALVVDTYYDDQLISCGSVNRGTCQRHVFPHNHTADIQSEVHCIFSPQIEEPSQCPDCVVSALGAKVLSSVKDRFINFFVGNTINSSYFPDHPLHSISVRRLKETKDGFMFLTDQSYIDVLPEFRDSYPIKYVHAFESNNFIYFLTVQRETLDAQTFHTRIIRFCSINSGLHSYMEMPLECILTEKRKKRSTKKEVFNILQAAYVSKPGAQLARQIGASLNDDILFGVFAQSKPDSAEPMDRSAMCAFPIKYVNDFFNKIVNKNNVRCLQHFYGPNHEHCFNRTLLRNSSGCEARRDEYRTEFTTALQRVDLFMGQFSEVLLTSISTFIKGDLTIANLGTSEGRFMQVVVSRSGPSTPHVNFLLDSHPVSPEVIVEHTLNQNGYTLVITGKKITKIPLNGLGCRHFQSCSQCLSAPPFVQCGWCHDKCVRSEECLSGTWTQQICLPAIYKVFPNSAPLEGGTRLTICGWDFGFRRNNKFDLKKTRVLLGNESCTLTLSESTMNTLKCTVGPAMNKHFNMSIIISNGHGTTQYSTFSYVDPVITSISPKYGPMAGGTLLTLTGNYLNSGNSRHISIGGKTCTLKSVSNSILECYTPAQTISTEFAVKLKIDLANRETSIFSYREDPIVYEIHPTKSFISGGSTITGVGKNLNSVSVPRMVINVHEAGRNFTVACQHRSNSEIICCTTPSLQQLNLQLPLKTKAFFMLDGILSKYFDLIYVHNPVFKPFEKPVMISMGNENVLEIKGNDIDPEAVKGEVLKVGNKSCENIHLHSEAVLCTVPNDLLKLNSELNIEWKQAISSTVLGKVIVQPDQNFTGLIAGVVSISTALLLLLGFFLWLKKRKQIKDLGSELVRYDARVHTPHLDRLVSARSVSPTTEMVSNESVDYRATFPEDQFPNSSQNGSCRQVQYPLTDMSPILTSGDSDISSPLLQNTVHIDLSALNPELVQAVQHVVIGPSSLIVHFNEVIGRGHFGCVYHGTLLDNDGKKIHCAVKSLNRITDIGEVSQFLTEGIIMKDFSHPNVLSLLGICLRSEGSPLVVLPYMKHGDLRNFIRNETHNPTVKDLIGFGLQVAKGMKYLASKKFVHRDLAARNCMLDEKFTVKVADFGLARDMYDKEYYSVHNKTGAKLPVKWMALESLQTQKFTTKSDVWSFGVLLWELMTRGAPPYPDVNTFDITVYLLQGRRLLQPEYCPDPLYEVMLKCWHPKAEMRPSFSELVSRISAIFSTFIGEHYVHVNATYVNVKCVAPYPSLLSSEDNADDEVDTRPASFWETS
Sequence of Mitotic checkpoint serine/threonine-protein kinase BUB1 (O43683 whole entry): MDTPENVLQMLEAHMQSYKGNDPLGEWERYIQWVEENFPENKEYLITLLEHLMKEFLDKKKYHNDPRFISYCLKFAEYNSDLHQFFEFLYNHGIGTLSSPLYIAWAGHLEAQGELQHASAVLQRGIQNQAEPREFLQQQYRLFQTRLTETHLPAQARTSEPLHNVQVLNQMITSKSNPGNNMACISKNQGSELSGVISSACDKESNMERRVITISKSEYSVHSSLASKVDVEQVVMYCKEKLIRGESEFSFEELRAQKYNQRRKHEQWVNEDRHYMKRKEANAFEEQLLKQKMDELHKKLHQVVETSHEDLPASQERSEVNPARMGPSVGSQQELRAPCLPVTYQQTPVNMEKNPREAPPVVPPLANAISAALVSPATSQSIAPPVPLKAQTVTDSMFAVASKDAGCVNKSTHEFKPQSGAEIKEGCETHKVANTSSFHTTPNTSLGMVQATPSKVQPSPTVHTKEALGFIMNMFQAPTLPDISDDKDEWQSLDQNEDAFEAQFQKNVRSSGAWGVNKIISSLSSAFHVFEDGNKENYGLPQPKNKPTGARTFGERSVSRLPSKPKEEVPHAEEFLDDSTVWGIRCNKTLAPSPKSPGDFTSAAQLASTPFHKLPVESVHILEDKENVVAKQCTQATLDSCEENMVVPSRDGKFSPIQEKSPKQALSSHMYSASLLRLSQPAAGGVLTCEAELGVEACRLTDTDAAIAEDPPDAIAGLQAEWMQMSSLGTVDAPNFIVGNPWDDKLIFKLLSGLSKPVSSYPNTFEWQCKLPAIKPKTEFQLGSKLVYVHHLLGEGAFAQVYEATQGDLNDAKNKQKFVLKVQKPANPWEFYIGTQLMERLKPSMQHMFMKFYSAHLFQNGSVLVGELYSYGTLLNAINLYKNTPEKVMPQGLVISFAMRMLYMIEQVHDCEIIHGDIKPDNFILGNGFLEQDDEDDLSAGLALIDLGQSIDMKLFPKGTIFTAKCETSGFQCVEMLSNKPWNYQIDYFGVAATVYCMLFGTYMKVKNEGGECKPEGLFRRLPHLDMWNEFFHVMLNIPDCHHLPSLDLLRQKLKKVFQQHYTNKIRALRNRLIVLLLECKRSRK

Kd [1] | Kd [2] | Kd [3] | Kd [4] | Kd [6] | Structure (SMILES) | Kd [5]
> 30 µM (inactive) | > 30 µM (inactive) | > 30 µM (inactive) | > 30 µM (inactive) | > 30 µM (inactive) | Cc1csc(-c2nnc(Nc3ccc(Oc4ncccc4-c4ccnc(N)n4)cc3)c3ccccc23)c1 [AMG-900] | > 30 µM (inactive)
> 30 µM (inactive) | > 30 µM (inactive) | > 30 µM (inactive) | > 30 µM (inactive) | > 30 µM (inactive) | C=CC(=O)Nc1cc2c(Nc3ccc(F)c(Cl)c3)ncnc2cc1C#CC(C)(C)N1CCN(C)CC1 [AV-412 FREE BASE] | > 30 µM (inactive)
> 30 µM (inactive) | > 30 µM (inactive) | > 30 µM (inactive) | > 30 µM (inactive) | > 30 µM (inactive) | Cn1cnc2c(F)c(Nc3ccc(Br)cc3F)c(C(=O)NOCCO)cc21 [BINIMETINIB] | > 30 µM (inactive)
> 30 µM (inactive) | > 30 µM (inactive) | > 30 µM (inactive) | > 30 µM (inactive) | > 30 µM (inactive) | CCn1c(C(=O)N(C2CC2)C2CC2)cc2c3c(ncn3C)c(Nc3cc(C)n(C)n3)nc21 [BMS-911543] | > 30 µM (inactive)
> 30 µM (inactive) | > 30 µM (inactive) | > 30 µM (inactive) | > 30 µM (inactive) | > 30 µM (inactive) | COc1cc2ncnc(Oc3cccc(NC(=O)Nc4cc(C(C)(C)C(F)(F)F)on4)c3)c2cc1OC [CEP-32496] | > 30 µM (inactive)
> 30 µM (inactive) | > 30 µM (inactive) | > 30 µM (inactive) | > 30 µM (inactive) | > 30 µM (inactive) | Cc1cc(Nc2ncc(Cl)c(Nc3ccccc3S(=O)(=O)C(C)C)n2)c(OC(C)C)cc1C1CCNCC1 [CERITINIB] | > 30 µM (inactive)
> 30 µM (inactive) | > 30 µM (inactive) | > 30 µM (inactive) | > 30 µM (inactive) | > 30 µM (inactive) | COc1c(OCCCN2CCOCC2)ccc2c1N=C(NC(=O)c1cnc(N)nc1)N1CCN=C21 [COPANLISIB] | > 30 µM (inactive)
> 30 µM (inactive) | > 30 µM (inactive) | > 30 µM (inactive) | > 30 µM (inactive) | > 30 µM (inactive) | COCC(=O)NC/C=C/c1ccc2ncnc(Nc3ccc(Oc4ccc(C)nc4)c(C)c3)c2c1 [CP-724714] | > 30 µM (inactive)
0.961 µM (active) | > 30 µM (inactive) | > 30 µM (inactive) | > 30 µM (inactive) | > 30 µM (inactive) | C#Cc1cccc(Nc2ncnc3cc(OC)c(OCCCCCCC(=O)NO)cc23)c1 [CUDC-101] | > 30 µM (inactive)
0.437 µM (active) | 0.261 µM (active) | 3.06 µM (active) | > 30 µM (inactive) | 0.455 µM (active) | CCS(=O)(=O)N1CCN(c2ccc(Nc3ncc(C(N)=O)c(NC4CC4)n3)cc2)CC1 [Cerdulatinib Hydrochloride] | > 30 µM (inactive)
> 30 µM (inactive) | > 30 µM (inactive) | > 30 µM (inactive) | > 30 µM (inactive) | > 30 µM (inactive) | Cc1nc2cc(-n3ncc(C(=O)c4cc5ccccc5[nH]4)c3N)ccc2[nH]1 [FGFR INHIBITOR DEBIO 1347] | > 30 µM (inactive)
> 30 µM (inactive) | > 30 µM (inactive) | 1.69 µM (active) | > 30 µM (inactive) | > 30 µM (inactive) | Cc1cccc(-c2nn3c(c2-c2ccnc4ccc(C(N)=O)cc24)CCC3)n1 [GALUNISERTIB] | > 30 µM (inactive)

Structure (SMILES) | Kd [1] | Kd [2] | Kd [3] | Kd [4] | Kd [6] | Kd [5]
COc1cc([C@@H]2c3cc4c(cc3[C@H](O)[C@H]3COC(=O)[C@@H]23)OCO4)cc(OC)c1OC [AXL-1717] | > 30 µM (inactive) | > 30 µM (inactive) | > 30 µM (inactive) | > 30 µM (inactive) | > 30 µM (inactive) | > 30 µM (inactive)
O=C(Nc1nc2cccc(-c3ccc(CN4CCS(=O)(=O)CC4)cc3)n2n1)C1CC1 [FILGOTINIB] | > 30 µM (inactive) | > 30 µM (inactive) | > 30 µM (inactive) | > 30 µM (inactive) | > 30 µM (inactive) | > 30 µM (inactive)
